Data on 26 molecules can be found in patent US9718819B2 (Merck Sharp & Dohme Corp., priority 2012, dated 2017).

This experiment deals with HIV-1 RT wild-type enzyme (Human immunodeficiency virus type 1 group M subtype B (isolate HXB2) (HIV-1), UniProt P04585). The experiment can be described thus: HIV-1 reverse transcriptase inhibitory activity (RT polymerase assay). To be noted: HIV-1 RT wild-type enzyme 83 pM; RNA-dependent DNA polymerase activity; read-out: IC50. The format is biochemical. Summed up: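 Enzyme and compound were preincubated 30 min at room temperature, then RNA/DNA hybrid (16.6 nM final; HCV-derived RNA, biotinylated primer) plus 2 μM dNTPs and 66.6 nM Ru-dUTP added, 90 min at 37 °C. Avidin capture and ECL counting; percent inhibition relative to DMSO (0%) and 1 μM efavirenz (100%), four-parameter IC50 fit.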

The term IC50 denotes the concentration that inhibits the measured activity by half.

SMILES strings stand for the structures.

For the molecule `N#Cc1cc(Cl)cc(Oc2c(C(F)(F)F)ncn(Cc3cc(Oc4ccc(F)cc4)c(=O)[nH]n3)c2=O)c1` [Example 108, 3-chloro-5-((1-((5-(4-fluorophenoxy)-6-oxo-1,6-dihydropyridazin-3-yl)methyl)-6-oxo-4-(trifluoromethyl)-1,6-dihydropyrimidin-5-yl)oxy)benzonitrile], the concentration for half-maximal inhibition (IC50) came out at 316 nM.

For the molecule `N#Cc1cc(Cl)cc(Oc2c(C(F)(F)F)ncn(Cc3cc(OC(F)F)c(=O)[nH]n3)c2=O)c1` [Example 109, 3-chloro-5-((1-((5-(difluoromethoxy)-6-oxo-1,6-dihydropyridazin-3-yl)methyl)-6-oxo-4-(trifluoromethyl)-1,6-dihydropyrimidin-5-yl)oxy)benzonitrile], the half-inhibitory concentration (IC50) was found to be 7 nM.

For the molecule `Cn1cc(-c2cc(Cn3cnc(C(F)(F)F)c(Oc4cc(Cl)cc(C#N)c4)c3=O)c(=O)[nH]n2)cn1` [Example 111, 3-chloro-5-((1-((6-(1-methyl-1H-pyrazol-4-yl)-3-oxo-2,3-dihydropyridazin-4-yl)methyl)-6-oxo-4-(trifluoromethyl)-1,6-dihydropyrimidin-5-yl)oxy)benzonitrile], the IC50 came out at 10 nM.

As to `N#Cc1cc(Cl)cc(Oc2c(C(F)(F)F)ncn(Cc3cc(-c4ccc(F)cc4)n[nH]c3=O)c2=O)c1` [Example 112, 3-chloro-5-((1-((6-(4-fluorophenyl)-3-oxo-2,3-dihydropyridazin-4-yl)methyl)-6-oxo-4-(trifluoromethyl)-1,6-dihydropyrimidin-5-yl)oxy)benzonitrile], the IC50 is 5 nM.

On to `N#Cc1cc(Cl)cc(Oc2c(C(F)(F)F)ncn(Cc3cc(-c4cccc(F)c4)n[nH]c3=O)c2=O)c1` [Example 113, 3-chloro-5-((1-((6-(3-fluorophenyl)-3-oxo-2,3-dihydropyridazin-4-yl)methyl)-6-oxo-4-(trifluoromethyl)-1,6-dihydropyrimidin-5-yl)oxy)benzonitrile], for which the IC50 came to 6 nM.

`Cn1nccc1-c1cc(Cn2cnc(C(F)(F)F)c(Oc3cc(Cl)cc(C#N)c3)c2=O)c(=O)[nH]n1` [Example 114, 3-chloro-5-((1-((6-(1-methyl-1H-pyrazol-5-yl)-3-oxo-2,3-dihydropyridazin-4-yl)methyl)-6-oxo-4-(trifluoromethyl)-1,6-dihydropyrimidin-5-yl)oxy)benzonitrile]: the IC50 was determined as 7 nM.

For the molecule `N#Cc1cc(Cl)cc(Oc2c(C(F)(F)F)ncn(Cc3cc(-c4ccc(OC(F)F)cc4)n[nH]c3=O)c2=O)c1` [Example 115, 3-chloro-5-((1-((6-(4-(difluoromethoxy)phenyl)-3-oxo-2,3-dihydropyridazin-4-yl)methyl)-6-oxo-4-(trifluoromethyl)-1,6-dihydropyrimidin-5-yl)oxy)benzonitrile], the IC50 was 7 nM.

With `N#Cc1cc(Cl)cc(Oc2c(C(F)(F)F)ncn(Cc3cc(-c4ccc(OC(F)(F)F)cc4)n[nH]c3=O)c2=O)c1` [Example 116, 3-chloro-5-((6-oxo-1-((3-oxo-6-(4-(trifluoromethoxy)phenyl)-2,3-dihydropyridazin-4-yl)methyl)-4-(trifluoromethyl)-1,6-dihydropyrimidin-5-yl)oxy)benzonitrile], the IC50 was 21 nM.

Regarding `N#Cc1cc(Cl)cc(Oc2c(C(F)(F)F)ncn(Cc3cc(-c4ccc(C(F)(F)F)cc4)n[nH]c3=O)c2=O)c1` [Example 119, 3-chloro-5-((6-oxo-1-((3-oxo-6-(4-(trifluoromethyl)phenyl)-2,3-dihydropyridazin-4-yl)methyl)-4-(trifluoromethyl)-1,6-dihydropyrimidin-5-yl)oxy)benzonitrile], the half-maximal inhibitory concentration (IC50) came to 12 nM.

In the case of `N#Cc1cc(Cl)cc(Oc2c(C(F)(F)F)ncn(Cc3cc(-c4cccc(F)c4F)n[nH]c3=O)c2=O)c1` [Example 120, 3-chloro-5-((1-((6-(2,3-difluorophenyl)-3-oxo-2,3-dihydropyridazin-4-yl)methyl)-6-oxo-4-(trifluoromethyl)-1,6-dihydropyrimidin-5-yl)oxy)benzonitrile], the IC50 stood at 3 nM.

Turning to `N#Cc1cc(Cl)cc(Oc2c(C(F)(F)F)ncn(Cc3cc(-c4ccc(F)c(F)c4)n[nH]c3=O)c2=O)c1` [Example 121, 3-chloro-5-((1-((6-(3,4-difluorophenyl)-3-oxo-2,3-dihydropyridazin-4-yl)methyl)-6-oxo-4-(trifluoromethyl)-1,6-dihydropyrimidin-5-yl)oxy)benzonitrile], the 50% inhibitory concentration (IC50) was 5 nM.

On to `N#Cc1cc(Cl)cc(Oc2c(C(F)(F)F)ncn(Cc3cc(-c4ccc(C#N)c(F)c4)n[nH]c3=O)c2=O)c1` [Example 122, 4-(5-((5-(3-chloro-5-cyanophenoxy)-6-oxo-4-(trifluoromethyl)pyrimidin-1(6H)-yl)methyl)-6-oxo-1,6-dihydropyridazin-3-yl)-2-fluorobenzonitrile], for which the IC50 was 6 nM.

With `N#Cc1cc(Cl)cc(Oc2c(C(F)(F)F)ncn(Cc3cc(-c4ccc(Cl)c(F)c4)n[nH]c3=O)c2=O)c1` [Example 123, 3-chloro-5-((1-((6-(4-chloro-3-fluorophenyl)-3-oxo-2,3-dihydropyridazin-4-yl)methyl)-6-oxo-4-(trifluoromethyl)-1,6-dihydropyrimidin-5-yl)oxy)benzonitrile], the IC50 was 6 nM.

In the case of `N#Cc1cc(Cl)cc(Oc2c(C(F)(F)F)ncn(Cc3cc(-c4cccnc4)n[nH]c3=O)c2=O)c1` [Example 124, 3-chloro-5-((6-oxo-1-((3-oxo-6-(pyridin-3-yl)-2,3-dihydropyridazin-4-yl)methyl)-4-(trifluoromethyl)-1,6-dihydropyrimidin-5-yl)oxy)benzonitrile], the IC50 amounted to 6 nM.

On to `N#Cc1cc(Cl)cc(Oc2c(C(F)(F)F)ncn(Cc3cc(-c4ccc(C(O)C(F)F)cc4)n[nH]c3=O)c2=O)c1` (centres unmarked) [Example 125, 3-chloro-5-((1-((6-(4-(2,2-difluoro-1-hydroxyethyl)phenyl)-3-oxo-2,3-dihydropyridazin-4-yl)methyl)-6-oxo-4-(trifluoromethyl)-1,6-dihydropyrimidin-5-yl)oxy)benzonitrile], for which the IC50 came to 8 nM.

As to `N#Cc1cc(Cl)cc(Oc2c(C(F)(F)F)ncn(Cc3cc(-c4ccnc5[nH]ccc45)n[nH]c3=O)c2=O)c1` [Example 126, 3-chloro-5-((6-oxo-1-((3-oxo-6-(1H-pyrrolo[2,3-b]pyridin-4-yl)-2,3-dihydropyridazin-4-yl)methyl)-4-(trifluoromethyl)-1,6-dihydropyrimidin-5-yl)oxy)benzonitrile], the IC50 came to 4 nM.

Regarding `N#Cc1cc(Cl)cc(Oc2c(C(F)(F)F)ncn(Cc3cnc(C(F)(F)F)[nH]c3=O)c2=O)c1` [Example 131, 3-Chloro-5-[16-oxo-1-(6-oxo-2-trifluoromethyl-1,6-dihydro-pyrimidin-5-ylmethyl)-4-trifluoromethyl-1,6-dihydro-pyrimidin-5-yloxy]-benzonitrile], the IC50 came to 435 nM.

With `CSc1ncc(Cn2cnc(C(F)(F)F)c(Oc3cc(Cl)cc(C#N)c3)c2=O)c(=O)[nH]1` [Example 132, 3-chloro-5-((1-((2-(methylthio)-6-oxo-1,6-dihydropyrimidin-5-yl)methyl)-6-oxo-4-(trifluoromethyl)-1,6-dihydropyrimidin-5-yl)oxy)benzonitrile], the 50% inhibitory concentration (IC50) came to 12 nM.

Consider `Cc1ncc(Cn2cnc(C(F)(F)F)c(Oc3cc(Cl)cc(C#N)c3)c2=O)c(=O)[nH]1` [Example 133, 3-chloro-5-((1-((2-methyl-6-oxo-1,6-dihydropyrimidin-5-yl)methyl)-6-oxo-4-(trifluoromethyl)-1,6-dihydropyrimidin-5-yl)oxy)benzonitrile], for which the IC50 was determined as 8 nM.

As for `N#Cc1cc(Cl)cc(Oc2c(C3CC3)ncn(Cc3ccc(=O)[nH]n3)c2=O)c1` [Example 134, 3-chloro-5-((4-cyclopropyl-6-oxo-1-((6-oxo-1,6-dihydropyridazin-3-yl)methyl)-1,6-dihydropyrimidin-5-yl)oxy)benzonitrile], the half-maximal inhibitory concentration (IC50) turned out to be 17 nM.

`N#Cc1cc(Cl)cc(Oc2c(C(F)(F)F)ncn(Cc3cnc(O)[nH]c3=O)c2=O)c1` [Example 135, 3-chloro-5-((1-((2-hydroxy-6-oxo-1,6-dihydropyrimidin-5-yl)methyl)-6-oxo-4-(trifluoromethyl)-1,6-dihydropyrimidin-5-yl)oxy)benzonitrile]: the half-maximal inhibitory concentration (IC50) came out at 8 nM.

Consider `N#Cc1cc(Cl)cc(Oc2c(C(F)(F)F)ncn(Cc3cnc[nH]c3=O)c2=O)c1` [Example 136, 3-chloro-5-((6-oxo-1-((6-oxo-1,6-dihydropyrimidin-5-yl)methyl)-4-(trifluoromethyl)-1,6-dihydropyrimidin-5-yl)oxy)benzonitrile], for which the IC50 was found to be 6 nM.

As to `CNc1ncc(Cn2cnc(C(F)(F)F)c(Oc3cc(Cl)cc(C#N)c3)c2=O)c(=O)[nH]1` [Example 137, 3-chloro-5-((1-((2-(methylamino)-6-oxo-1,6-dihydropyrimidin-5-yl)methyl)-6-oxo-4-(trifluoromethyl)-1,6-dihydropyrimidin-5-yl)oxy)benzonitrile], the IC50 was found to be 9 nM.

Turning to `CNc1ncc(Cn2cnc(C(F)(F)F)c(Oc3cc(Cl)cc(C#N)c3)c2=O)c(OC)n1` [Example 138, 3-chloro-5-((1-((4-methoxy-2-(methylamino)pyrimidin-5-yl)methyl)-6-oxo-4-(trifluoromethyl)-1,6-dihydropyrimidin-5-yl)oxy)benzonitrile], the half-maximal inhibitory concentration (IC50) turned out to be 11 nM.

For the molecule `N#Cc1cc(Cl)cc(Oc2c(C(F)(F)F)ncn(Cc3cnc(OCC(F)(F)F)[nH]c3=O)c2=O)c1` [Example 139, 3-Chloro-5-{6-oxo-1-[6-oxo-2-(2,2,2-trifluoro-ethoxy)-1,6-dihydro-pyrimidin-5-ylmethyl]-4-trifluoromethyl-1,6-dihydro-pyrimidin-5-yloxy}-benzonitrile], the half-inhibitory concentration (IC50) turned out to be 45 nM.

Turning to `N#Cc1cc(Cl)cc(Oc2c(C(F)(F)F)ncn(Cc3cnc(Oc4ccc(F)cc4)[nH]c3=O)c2=O)c1` [Example 140, 3-Chloro-5-{1-[2-(4-fluoro-phenoxy)-6-oxo-1,6-dihydro-pyrimidin-5-ylmethyl]-6-oxo-4-trifluoromethyl-1,6-dihydro-pyrimidin-5-yloxy}-benzonitrile], the IC50 is 36 nM.
